Data reported in patent publication US20070128217A1 (priority 2003, published 2007).

Tests used:
[1] = test system: antibodies in sera from SARS patients (sera 1a, 1b, 2, 6, 37, 62, London, SARS-yellow, SARS-green); format: binding, human; design: Binding of serum 6 to linear peptides of protein X1 of SARS-CoV Urbani / Binding of serum 37 to linear peptides of protein X1 of SARS-CoV Urbani / Binding of serum 6 to looped/cyclic peptide (PEPSCAN-ELISA) / Binding of serum 37 to looped/cyclic peptide (PEPSCAN-ELISA) / Binding of serum 37 to looped/cyclic peptides of protein X1 of SARS-CoV Urbani / Binding of serum 6 to linear peptides of protein X2 / Binding of serum 37 to linear peptides of protein X2 / Binding of serum 37 to looped/cyclic peptides of protein X2 of SARS-CoV Urbani / Binding of serum 6 to linear peptides of protein M of SARS-CoV Urbani / Binding of serum 37 to linear peptides of protein M of SARS-CoV Urbani / Binding of serum 6 to looped/cyclic peptides of protein M of SARS-CoV Urbani / Binding of serum 37 to looped/cyclic peptides of protein M of SARS-CoV Urbani / Binding of serum 6 to linear peptides of protein X3 of SARS-CoV Urbani / Binding of serum 37 to linear peptides of protein X3 of SARS-CoV Urbani / Binding of serum 37 to looped/cyclic peptides of protein X3 of SARS-CoV Urbani / Binding of serum 6 to linear peptides of protein X4 of SARS-CoV Urbani / Binding of serum 37 to linear peptides of protein X4 of SARS-CoV Urbani / Binding of serum 37 to looped/cyclic peptides of protein X4 of SARS-CoV Urbani / Binding of serum 6 to linear peptides of protein X5 of SARS-CoV Urbani / Binding of serum 37 to linear peptides of protein X5 of SARS-CoV Urbani / Binding of serum 37 to looped/cyclic peptides of protein X5 of SARS-CoV Urbani / Binding of serum 6 to linear peptides of protein N of SARS-CoV Urbani / Binding of serum 37 to linear peptides of protein N of SARS-CoV Urbani / Binding of serum 6 to linear peptide (PEPSCAN-ELISA) / Binding of serum 1a to looped/cyclic peptides of protein N of SARS-CoV Urbani / Binding of serum 1b to looped/cyclic peptides of protein N of SARS-CoV Urbani / Binding of serum 2 to looped/cyclic peptides of protein N of SARS-CoV Urbani / Binding of serum 6 to looped/cyclic peptides of protein N of SARS-CoV Urbani / Binding of serum 37 to looped/cyclic peptides of protein N of SARS-CoV Urbani / Binding of serum 62 to looped/cyclic peptides of protein N of SARS-CoV Urbani / Binding of serum London to looped/cyclic peptides of protein N of SARS-CoV Urbani / Binding of serum SARS-green to looped/cyclic peptides of protein N of SARS-CoV Urbani: unit not given here
[2] = test system: control sera (pooled serum of ten healthy LUMC hospital workers; commercial negative donor pooled serum from the Dutch bloodbank); format: binding, human; design: Binding of Control serum LUMC to linear peptides / Binding of Control serum Blood-bank to linear peptides / Binding of Control serum LUMC to looped peptides / Binding of Control Serum Blood-Bank to Looped peptides / Binding of Control serum LUMC to linear peptides of the protein M of SARS-CoV Urbani / Binding of Control serum Blood-bank to linear peptides of the protein M of SARS-CoV Urbani / Binding of Control serum LUMC to looped peptides of the protein M of SARS-CoV Urbani / Binding of Control Serum Blood-Bank to Looped peptides of the protein M of SARS-CoV Urbani: unit not given here
[3] = test system: rabbit serum obtained by immunizing a rabbit with the SARS-CoV strain Frankfurt 1; format: binding; design: Binding of a rabbit serum to linear peptides / Binding of a rabbit serum to looped peptides / Rabbit serum linear peptides / Rabbit serum looped peptides / Binding of a rabbit serum to linear peptides of protein N of SARS-CoV Urbani (Rabbit serum linear peptides) / Binding of a rabbit serum to looped/cyclic peptides of protein N of SARS-CoV Urbani (Rabbit serum looped peptides): unit not given here

Row | Sequence | Binding of serum 1a to linear peptides of protein X1 of SARS-CoV Urbani [1] | Binding of serum 1a to looped/cyclic peptides of protein X1 of SARS-CoV Urbani [1] | Binding of serum 1b to linear peptides of protein X1 of SARS-CoV Urbani [1] | Binding of serum 1b to looped/cyclic peptides of protein X1 of SARS-CoV Urbani [1] | Binding of serum 2 to linear peptides of protein X1 of SARS-CoV Urbani [1] | Binding of serum 2 to looped/cyclic peptides of protein X1 of SARS-CoV Urbani [1] | Binding of serum 6 to linear peptides of protein X1 of SARS-CoV Urbani [1] | Binding of serum 6 to looped/cyclic peptides of protein X1 of SARS-CoV Urbani [1] | Binding of serum 37 to linear peptides of protein X1 of SARS-CoV Urbani [1] | Binding of serum 37 to looped/cyclic peptides of protein X1 of SARS-CoV Urbani [1] | Binding of serum 62 to linear peptides of protein X1 of SARS-CoV Urbani [1] | Binding of serum London to linear peptides of protein X1 of SARS-CoV Urbani [1] | Binding of serum SARS-green to linear peptides of protein X1 of SARS-CoV Urbani [1] | Binding of serum SARS-yellow to linear peptides of protein X1 of SARS-CoV Urbani [1] | Binding of Control Serum Blood-Bank to Looped peptides [2] | Binding of Control serum Blood-bank to linear peptides [2] | Binding of Control serum LUMC to linear peptides [2] | Binding of Control serum LUMC to looped peptides [2] | Binding of a rabbit serum to linear peptides [3] | Binding of a rabbit serum to looped peptides [3] | further results
1 | TIDGSSGVANPAMDP | 0.6 | 0.5 | 0.6 | 0.4 | 0.6 | 0.4 | 0.6 | 0.3 | 0.6 | 0.3 | 0.6 | 0.4 | 0.4 | 0.3 | 0.4 | 0.4 | 0.6 | 0.4 | 0.1 | 0.4 | Binding of serum 62 to looped/cyclic peptides of protein X1 of SARS-CoV Urbani [1]: 0.3; Binding of serum London to looped/cyclic peptides of protein X1 of SARS-CoV Urbani [1]: 0.2; Binding of serum SARS-green to looped/cyclic peptides of protein X1 of SARS-CoV Urbani [1]: 0.3; Binding of serum SARS-yellow to looped/cyclic peptides of protein X1 of SARS-CoV Urbani [1]: 0.2
2 | TIPLQASLPFGWLVI | 0.8 | – | 0.5 | – | 0.6 | – | 0.5 | – | 0.7 | – | 0.8 | 0.3 | 0.4 | 0.4 | 0.7 | 0.8 | 0.7 | 0.7 | 0.1 | 0.5 | Binding of serum 1a to looped/cyclic peptide (PEPSCAN-ELISA) [1]: 0.6; Binding of serum 1b to looped/cyclic peptide (PEPSCAN-ELISA) [1]: 0.4; Binding of serum 2 to looped/cyclic peptide (PEPSCAN-ELISA) [1]: 0.5; Binding of serum 6 to looped/cyclic peptide (PEPSCAN-ELISA) [1]: 0.4; Binding of serum 37 to looped/cyclic peptide (PEPSCAN-ELISA) [1]: 0.6; Binding of serum 62 to looped/cyclic peptide (PEPSCAN-ELISA) [1]: 0.7; Binding of serum London to looped/cyclic peptide (PEPSCAN-ELISA) [1]: 0.2; Binding of serum SARS-green to looped/cyclic peptide (PEPSCAN-ELISA) [1]: 0.4; Binding of serum SARS-yellow to looped/cyclic peptide (PEPSCAN-ELISA) [1]: 0.5
3 | TIVVTEGDGISTPKL | 0.6 | 0.7 | 0.5 | 0.7 | 0.5 | 0.5 | 0.6 | 0.4 | 0.6 | 0.7 | 0.5 | 0.3 | 0.3 | 0.3 | 0.6 | 0.5 | 0.5 | 0.7 | 0.1 | 0.5 | Binding of serum 62 to looped/cyclic peptides of protein X1 of SARS-CoV Urbani [1]: 0.6; Binding of serum London to looped/cyclic peptides of protein X1 of SARS-CoV Urbani [1]: 0.2; Binding of serum SARS-green to looped/cyclic peptides of protein X1 of SARS-CoV Urbani [1]: 0.6; Binding of serum SARS-yellow to looped/cyclic peptides of protein X1 of SARS-CoV Urbani [1]: 0.5
